Measurements published in patent US20220387608A1, “ADRENOMEDULLIN-ANALOGUES FOR LONG-TERM STABILIZATION AND THEIR USE” (Bayer Aktiengesellschaft, priority 2019, published 2022).
Positions of bridges follow the written chain, without caps; N, C: chain ends. Non-standard residues stand in square brackets, D forms with d. Residues, ends and D or L forms follow the SMILES beside them. *: point of attachment. C18 diacid = O=C(O)CCCCCCCCCCCCCCCCC(=O)*; PEG5 = NCCOCCOCCOCCOCCOCCC(=O)O

Molecular target: T1, AM1R (Homo sapiens, UniProt O60895+Q16602)
T1 construct: EYFP; ECFP; expressed in transfected cells; host or cells: HEK-293 (transient co-transfection)
T1 sequence (Q16602 23-461): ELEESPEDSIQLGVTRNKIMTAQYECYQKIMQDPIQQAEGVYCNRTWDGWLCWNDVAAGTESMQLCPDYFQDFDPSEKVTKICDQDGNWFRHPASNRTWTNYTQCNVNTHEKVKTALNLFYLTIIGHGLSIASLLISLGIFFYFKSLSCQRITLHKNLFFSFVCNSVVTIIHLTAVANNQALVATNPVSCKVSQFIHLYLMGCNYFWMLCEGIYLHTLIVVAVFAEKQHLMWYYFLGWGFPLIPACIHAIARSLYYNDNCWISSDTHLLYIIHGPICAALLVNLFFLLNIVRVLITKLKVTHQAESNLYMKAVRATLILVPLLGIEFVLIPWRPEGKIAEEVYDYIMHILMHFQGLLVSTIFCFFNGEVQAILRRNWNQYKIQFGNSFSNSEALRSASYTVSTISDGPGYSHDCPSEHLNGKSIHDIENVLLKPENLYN
T1 sequence (O60895 43-175): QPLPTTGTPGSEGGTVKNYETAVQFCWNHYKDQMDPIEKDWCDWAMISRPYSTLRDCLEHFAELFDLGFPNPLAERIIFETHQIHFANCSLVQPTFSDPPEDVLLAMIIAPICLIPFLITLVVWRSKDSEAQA
Assay: Activity determination in vitro: cAMP/CRE-luciferase reporter assay in HEK293 cells transiently co-transfected with CLR and RAMP2
Format: cell-based
Conditions: for Emax: HEK293, normalized to [G14]ADM(14-52); for EC50: HEK293 with CLR/RAMP2, CRE-luciferase, 3 h stimulation
Outline: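 HEK-293 cells transiently co-transfected with CLR-EYFP, RAMP2-ECFP and a CRE-luc2P reporter, stimulated 3 h at 37° C with eight ligand concentrations in triplicate. Luminescence read by ONE-Glo, corrected to 5 μM forskolin, normalized to [G14]ADM(14-52) standard, and fitted by non-linear regression.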

SMILES	Emax [%]	EC50 [nM]
CC[C@H](C)[C@H](NC(=O)[C@H](CCC(N)=O)NC(=O)[C@H](Cc1c[nH]cn1)NC(=O)[C@H](C)NC(=O)[C@H](CC(C)C)NC(=O)[C@H](CCCCN)NC(=O)[C@H](CCC(N)=O)NC(=O)[C@@H](NC(=O)[C@@H](NC(=O)[C@@H]1CSSC[C@H](NC(=O)CNC(=O)CN)C(=O)N[C@@H](CCCNC(=N)N)C(=O)N[C@@H](Cc2ccccc2)C(=O)NCC(=O)N[C@@H]([C@@H](C)O)C(=O)N1)[C@@H](C)O)C(C)C)C(=O)N[C@@H](Cc1ccc(O)cc1)C(=O)N[C@@H](CCC(N)=O)C(=O)N[C@@H](Cc1ccccc1)C(=O)N[C@H](C(=O)N[C@@H](CC(=O)O)C(=O)NCCOCCOCCOCCOCCOCCC(=O)N[C@@H](C)C(=O)N1CCC[C@H]1C(=O)N[C@@H](CCCNC(=N)N)C(=O)N[C@@H](CO)C(=O)N[C@@H](CCCCN)C(=O)N[C@H](C(=O)N[C@@H](CO)C(=O)N1CCC[C@H]1C(=O)N[C@@H](CCC(N)=O)C(=O)NCC(=O)N[C@@H](Cc1ccc(O)cc1)C(N)=O)[C@@H](C)CC)[C@@H](C)O [Example 12, ((4R,7S,13S,16S,19R)-19-(2-(2-aminoacetamido)acetamido)-13-benzyl-16-(3-guanidinopropyl)-7-((R)-1-hydroxyethyl)-6,9,12,15,18-pentaoxo-1,2-dithia-5,8,11,14,17-pentaazacycloicosane-4-carbonyl)-L-threonyl-ADM(23-35)-(1-(λ^2-azaneyl)-3,6,9,12,15-pentaoxaoctadecan-18-oyl)-L-alanyl-ADM(43-52)] (H-GGCRFGTCTVQKLAHQIYQFTD[PEG5]APRSKISPQGY-NH2; disulfide 3-8)	79 ± 5	431
CC[C@H](C)[C@H](NC(=O)[C@H](CCC(N)=O)NC(=O)[C@H](Cc1c[nH]cn1)NC(=O)[C@H](C)NC(=O)[C@H](CC(C)C)NC(=O)[C@H](CCCCN)NC(=O)[C@H](CCC(N)=O)NC(=O)[C@@H](NC(=O)[C@@H](NC(=O)[C@@H]1CSSC[C@H](NC(=O)CNC(=O)[C@@H](N)CCCCNC(=O)CCCCCCCCCCCCCCCCC(=O)O)C(=O)N[C@@H](CCCNC(=N)N)C(=O)N[C@@H](Cc2ccccc2)C(=O)NCC(=O)N[C@@H]([C@@H](C)O)C(=O)N1)[C@@H](C)O)C(C)C)C(=O)N[C@@H](Cc1ccc(O)cc1)C(=O)N[C@@H](CCC(N)=O)C(=O)N[C@@H](Cc1ccccc1)C(=O)N[C@H](C(=O)N[C@@H](CC(=O)O)C(=O)N[C@@H](CCCCN)C(=O)N[C@@H](CC(=O)O)C(=O)N[C@@H](CCCCN)C(=O)N[C@@H](CC(=O)O)C(=O)N[C@@H](CC(N)=O)C(=O)N[C@H](C(=O)N[C@@H](C)C(=O)N1CCC[C@H]1C(=O)N[C@H]1CCCCNC(=O)C[C@@H](C(=O)N2CCC[C@H]2C(=O)N[C@@H](CCC(N)=O)C(=O)NCC(=O)N[C@@H](Cc2ccc(O)cc2)C(N)=O)NC(=O)[C@H]([C@@H](C)CC)NC(=O)[C@H](CCCCN)NC(=O)[C@H](CO)NC1=O)C(C)C)[C@@H](C)O [Example 13] (H-K(C18 diacid)GCRFGTCTVQKLAHQIYQFTDKDKDNVAPKSKIDPQGY-NH2; disulfide 3-8; lactam 31-35)	94 ± 7	2.6
